Calls of active or inactive are those of the source. The calls are words filed in the database; no cut-off is given here.
Experiments:
Cholinesterase = Cholinesterase (Equus caballus, UniProt P81908); assay: Inhibition of equine serum BuChE using butyrylthiocholine iodide as substrate preincubated for 5 mins followed by substrate addition measured after 2 mins by Ellman's method; format: ADME
[1] = Antioxidant activity assessed as trolox equivalent of AAPH radical scavenging activity at 1 to 25 uM preincubated for 15 mins followed by AAPH addition measured every min for 80 mins by ORAC-FL assay; format: functional
[2] = Selectivity index, ratio of IC50 for equine serum BuChE to IC50 for Electric eel AChE
Acetylcholinesterase = Acetylcholinesterase (Electrophorus electricus, UniProt O42275); assay: Inhibition of Electric eel AChE using acetylthiocholine iodide as substrate preincubated for 5 mins followed by substrate addition measured after 2 mins by Ellman's method
Chain of Acetylcholinesterase (O42275 whole entry): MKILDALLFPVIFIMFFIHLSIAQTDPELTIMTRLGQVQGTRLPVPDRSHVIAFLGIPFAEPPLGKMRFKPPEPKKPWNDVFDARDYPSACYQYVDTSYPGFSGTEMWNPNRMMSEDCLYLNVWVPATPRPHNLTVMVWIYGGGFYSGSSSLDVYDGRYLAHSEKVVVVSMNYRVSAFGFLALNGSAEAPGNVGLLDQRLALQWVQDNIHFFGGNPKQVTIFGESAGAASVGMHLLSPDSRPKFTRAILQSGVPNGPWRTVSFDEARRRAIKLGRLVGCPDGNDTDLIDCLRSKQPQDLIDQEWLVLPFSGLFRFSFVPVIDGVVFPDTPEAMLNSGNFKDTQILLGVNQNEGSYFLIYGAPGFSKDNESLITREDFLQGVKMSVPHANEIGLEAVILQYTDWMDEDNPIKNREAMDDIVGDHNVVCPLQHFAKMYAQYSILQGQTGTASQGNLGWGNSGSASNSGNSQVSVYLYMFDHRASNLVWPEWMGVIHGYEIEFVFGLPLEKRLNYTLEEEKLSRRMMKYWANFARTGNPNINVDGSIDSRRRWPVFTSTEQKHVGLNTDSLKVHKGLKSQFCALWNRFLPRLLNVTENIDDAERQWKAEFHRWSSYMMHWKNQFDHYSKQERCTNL

[3] = target: T1, Amyloid-beta precursor protein (Homo sapiens, UniProt P05067); assay: Inhibition of HFIP-pretreated amyloid beta (1 to 42) (unknown origin) self-induced aggregation at 25 uM after 48 hrs by thioflavin-T fluorescence assay relative to control
T1 sequence (P05067 whole entry): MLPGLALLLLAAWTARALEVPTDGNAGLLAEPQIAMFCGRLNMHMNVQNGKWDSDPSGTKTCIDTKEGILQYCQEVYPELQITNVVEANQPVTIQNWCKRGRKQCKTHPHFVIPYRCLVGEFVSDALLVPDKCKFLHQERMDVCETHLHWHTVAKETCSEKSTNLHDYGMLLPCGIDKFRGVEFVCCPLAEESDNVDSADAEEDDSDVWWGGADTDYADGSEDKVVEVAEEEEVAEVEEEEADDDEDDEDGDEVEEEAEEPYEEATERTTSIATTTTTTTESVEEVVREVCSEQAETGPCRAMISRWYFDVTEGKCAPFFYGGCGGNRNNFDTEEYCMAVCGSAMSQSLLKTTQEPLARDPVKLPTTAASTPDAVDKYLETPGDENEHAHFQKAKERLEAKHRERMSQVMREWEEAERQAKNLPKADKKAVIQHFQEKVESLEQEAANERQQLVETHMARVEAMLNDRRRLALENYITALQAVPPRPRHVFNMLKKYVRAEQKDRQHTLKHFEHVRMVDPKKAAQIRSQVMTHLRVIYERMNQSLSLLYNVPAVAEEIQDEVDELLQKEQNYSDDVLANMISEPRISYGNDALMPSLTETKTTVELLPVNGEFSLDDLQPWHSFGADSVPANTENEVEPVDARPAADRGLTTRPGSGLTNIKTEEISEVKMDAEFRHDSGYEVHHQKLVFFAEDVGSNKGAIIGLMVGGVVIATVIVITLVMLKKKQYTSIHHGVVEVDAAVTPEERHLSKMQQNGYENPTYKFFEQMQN

[4] = Cytotoxicity against human SH-SY5Y cells assessed as cell viability at 50 uM after 48 hrs by MTT assay relative to control; format: toxicity, cell-based; conditions: read-out: Activity
SH-SY5Y [5] = assay: Neuroprotective activity against H2O2-induced morphological changes in human SH-SY5Y cells assessed as decrease in cell vacuolation at 20 uM after 24 hrs by phase contrast microscopic method; format: functional, cell-based
[6] = Cytotoxicity against human SH-SY5Y cells assessed as reduction in cell viability after 48 hrs by MTT assay; format: toxicity, cell-based
[7] = Cytotoxicity against human SH-SY5Y cells assessed as cell viability at 1 uM after 48 hrs by MTT assay relative to control; format: toxicity, cell-based; conditions: read-out: Activity
[8] = target: T1, Amyloid-beta precursor protein; assay: Potency index, ratio of curcumin IC50 to compound IC50 for HFIP-pretreated amyloid beta (1 to 42) (unknown origin) self-induced aggregation
[9] = Cytotoxicity against human SH-SY5Y cells assessed as cell viability at 75 uM after 48 hrs by MTT assay relative to control; format: toxicity, cell-based; conditions: read-out: Activity
[10] = target: T1, Amyloid-beta precursor protein; assay: Inhibition of amyloid beta (1 to 42) (unknown origin) fibril formation at 25 uM after 48 hrs by uranyl acetate staining based transmission electron microscopic method
[11] = Cytotoxicity against human SH-SY5Y cells assessed as cell viability at 100 uM after 48 hrs by MTT assay relative to control; format: toxicity, cell-based; conditions: read-out: Activity
SH-SY5Y [12] = assay: Neuroprotective activity against amyloid beta (1 to 42)-induced morphological changes in human SH-SY5Y cells assessed as decrease in fading synapses at 20 uM after 48 hrs by phase contrast microscopic method; format: functional, cell-based
SH-SY5Y [13] = assay: Neuroprotective activity against H2O2-induced oxidative stress in human SH-SY5Y cells assessed as inhibition of ROS accumulation at 10 to 20 uM after 24 hrs by DCFH-DA probe based fluorescence assay; format: functional, cell-based
SH-SY5Y [14] = assay: Neuroprotective activity against amyloid beta (1 to 42)-induced neurodegeneration in human SH-SY5Y cells assessed as increase in cell viability at 20 uM after 48 hrs by MTT assay; format: functional, cell-based
[15] = Cytotoxicity against human SH-SY5Y cells assessed as cell viability at 5 uM after 48 hrs by MTT assay relative to control; format: toxicity, cell-based; conditions: read-out: Activity
[16] = Cytotoxicity against human SH-SY5Y cells assessed as cell viability at 10 uM after 48 hrs by MTT assay relative to control; format: toxicity, cell-based; conditions: read-out: Activity
SH-SY5Y [17] = assay: Neuroprotective activity against H2O2-induced morphological changes in human SH-SY5Y cells assessed as decrease in floated appearance at 20 uM after 24 hrs by phase contrast microscopic method; format: functional, cell-based
SH-SY5Y [18] = assay: Neuroprotective activity against amyloid beta (1 to 42)-induced morphological changes in human SH-SY5Y cells assessed as decrease in fragmented or rounded floating cells at 20 uM after 48 hrs by phase contrast microscopic method; format: functional, cell-based
SH-SY5Y [19] = assay: Neuroprotective activity against amyloid beta (1 to 42)-induced morphological changes in human SH-SY5Y cells assessed as decrease in shrinked cell body at 20 uM after 48 hrs by phase contrast microscopic method; format: functional, cell-based
[20] = Cytotoxicity against human SH-SY5Y cells assessed as cell viability at 25 uM after 48 hrs by MTT assay relative to control; format: toxicity, cell-based; conditions: read-out: Activity
[21] = target: T1, Amyloid-beta precursor protein; assay: Inhibition of HFIP-pretreated amyloid beta (1 to 42) (unknown origin) self-induced aggregation after 48 hrs by thioflavin-T fluorescence assay
SH-SY5Y [22] = assay: Neuroprotective activity against amyloid beta (1 to 42)-induced morphological changes in human SH-SY5Y cells assessed as decrease in loss of adherence at 20 uM after 48 hrs by phase contrast microscopic method; format: functional, cell-based
SH-SY5Y [23] = assay: Neuroprotective activity against H2O2-induced morphological changes in human SH-SY5Y cells assessed as decrease in cell rounding at 20 uM after 24 hrs by phase contrast microscopic method; format: functional, cell-based
SH-SY5Y [24] = assay: Neuroprotective activity against H2O2-induced oxidative stress in human SH-SY5Y cells assessed as increase in cell viability at 5 to 20 uM after 24 hrs by MTT assay; format: functional, cell-based
[25] = Effect on basal ROS level in human SH-SY5Y cells at 5 to 20 uM after 24 hrs by DCFH-DA probe based fluorescence assay; format: ADME, cell-based
SH-SY5Y [26] = assay: Neuroprotective activity against H2O2-induced oxidative stress in human SH-SY5Y cells assessed as increase in cell viability at 10 uM after 24 hrs by MTT assay; format: functional, cell-based
SH-SY5Y [27] = assay: Neuroprotective activity against H2O2-induced oxidative stress in human SH-SY5Y cells assessed as inhibition of ROS accumulation after 24 hrs by DCFH-DA probe based fluorescence assay; format: functional, cell-based
SH-SY5Y [28] = assay: Neuroprotective activity against H2O2-induced oxidative stress in human SH-SY5Y cells assessed as increase in cell viability at 20 uM after 24 hrs by MTT assay; format: functional, cell-based
[29] = target: Acetylcholinesterase (Electrophorus electricus) (UniProt O42275); assay: Mixed-type inhibition of Electric eel AChE at 10 to 40 nM using varying levels of acetylthiocholine iodide as substrate preincubated for 15 mins followed by substrate addition by Lineweaver-Burk plot analysis
Chain of Acetylcholinesterase (Electrophorus electricus) (O42275 24-633 limits assumed): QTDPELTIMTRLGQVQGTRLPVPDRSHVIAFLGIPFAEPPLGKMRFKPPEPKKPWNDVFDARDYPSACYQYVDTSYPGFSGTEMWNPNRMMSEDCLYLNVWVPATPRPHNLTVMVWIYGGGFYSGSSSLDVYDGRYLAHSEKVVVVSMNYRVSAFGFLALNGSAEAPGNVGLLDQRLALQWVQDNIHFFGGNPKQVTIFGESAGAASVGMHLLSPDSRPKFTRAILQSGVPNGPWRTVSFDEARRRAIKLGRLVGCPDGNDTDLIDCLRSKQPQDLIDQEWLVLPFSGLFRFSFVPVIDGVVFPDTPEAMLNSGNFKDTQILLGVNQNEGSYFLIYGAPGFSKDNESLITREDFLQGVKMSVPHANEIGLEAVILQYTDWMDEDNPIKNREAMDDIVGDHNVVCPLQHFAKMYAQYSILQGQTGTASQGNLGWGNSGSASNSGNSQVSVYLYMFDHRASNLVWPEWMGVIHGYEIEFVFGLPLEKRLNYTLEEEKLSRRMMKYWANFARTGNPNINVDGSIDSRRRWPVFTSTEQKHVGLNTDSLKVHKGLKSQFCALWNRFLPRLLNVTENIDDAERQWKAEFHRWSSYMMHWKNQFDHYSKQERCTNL

SH-SY5Y [30] = assay: Neuroprotective activity against amyloid beta (1 to 42)-induced neurodegeneration in human SH-SY5Y cells assessed as increase in cell viability at 10 uM after 48 hrs by MTT assay; format: functional, cell-based

Chain of Cholinesterase (P81908 whole entry): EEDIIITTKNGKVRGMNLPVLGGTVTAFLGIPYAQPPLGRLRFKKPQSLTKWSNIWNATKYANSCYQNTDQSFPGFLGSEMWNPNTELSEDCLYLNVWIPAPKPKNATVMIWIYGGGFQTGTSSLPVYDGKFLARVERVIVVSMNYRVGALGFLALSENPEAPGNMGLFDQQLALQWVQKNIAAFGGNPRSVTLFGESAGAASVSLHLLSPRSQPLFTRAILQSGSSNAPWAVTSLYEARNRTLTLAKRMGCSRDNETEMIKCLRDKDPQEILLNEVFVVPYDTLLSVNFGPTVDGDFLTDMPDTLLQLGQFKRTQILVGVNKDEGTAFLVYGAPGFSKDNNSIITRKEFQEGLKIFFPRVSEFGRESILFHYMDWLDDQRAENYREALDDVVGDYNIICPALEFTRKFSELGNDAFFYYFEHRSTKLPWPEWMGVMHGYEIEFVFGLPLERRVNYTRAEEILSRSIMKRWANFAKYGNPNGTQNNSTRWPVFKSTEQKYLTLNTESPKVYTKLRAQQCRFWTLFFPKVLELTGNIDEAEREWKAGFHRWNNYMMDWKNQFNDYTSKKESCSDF

SMILES | IC50 (Cholinesterase) | Activity (umolequiv/umol) [1] | Ratio IC50 [2] | IC50 (Acetylcholinesterase) | inhibition [3] | viability at 48 h, 50 µM [4] | Activity (SH-SY5Y [5]) | Activity [6] | viability at 48 h, 1 µM [7] | viability at 48 h, 75 µM [9] | viability at 48 h, 100 µM [11] | Activity (SH-SY5Y [12]) | viability at 48 h, 5 µM [15] | viability at 48 h, 10 µM [16] | Activity (SH-SY5Y [17]) | Activity (SH-SY5Y [18]) | Activity (SH-SY5Y [19]) | viability at 48 h, 25 µM [20] | IC50 [21] | Activity (SH-SY5Y [22]) | also measured
COc1cc2c(cc1OC)C(=O)/C(=C/c1ccc(N3CCN(c4ccc(F)cc4)CC3)cc1)C2 | 3240 nM | 1.93 | 6.1 | 528 nM | 66.8% |  |  |  |  |  |  |  |  |  |  |  |  |  |  |  | 
COc1cc2c(cc1OC)C(=O)/C(=C/c1ccc(N3CCN(c4ccccn4)CC3)cc1)C2 | 1740 nM | 2.08 | 16.5 | 105 nM | 73.3% |  |  |  |  |  |  |  |  |  |  |  |  |  |  |  | 
COc1cc2c(cc1OC)C(=O)/C(=C/c1ccc(N3CCN(C(c4ccc(F)cc4)c4ccc(F)cc4)CC3)cc1)C2 | 3010 nM | 2.98 | 67 | 45 nM | 83.7% | 88.6% | Active | Dose-dependent effect | 97.1% | 84.3% | 80.3% | Active | 95.4% | 95.7% | Active | Active | Active | 92.8% | 7.4 µM | Active | Ratio IC50 [8]: 2.96; inhibition [10]: Active; inhibition (SH-SY5Y [13]): Active; Activity (SH-SY5Y [14]): Active; Activity (SH-SY5Y [23]): Active; Activity (SH-SY5Y [24]): Active
COc1cc2c(cc1OC)C(=O)/C(=C/c1ccc(N3CCN(C(=O)c4ccccc4)CC3)cc1)C2 | 365 nM | 2.31 | 0.2 | 1700 nM | 61.4% |  |  |  |  |  |  |  |  |  |  |  |  |  |  |  | 
COc1cc2c(cc1OC)C(=O)/C(=C/c1ccc(N3CCN(C(=O)c4ccoc4)CC3)cc1)C2 | 1970 nM | 3.89 |  | 34 nM | 80.4% | 86.9% | Active | Dose-dependent effect | 96% | 83.7% | 81.1% | Active | 94.4% | 92.3% | Active | Active | Active | 90.1% | 10.9 µM | Active | Activity [25]: Non-Toxic; Activity (SH-SY5Y [14]): Active; Activity (SH-SY5Y [26]): Active; Activity (SH-SY5Y [23]): Active; inhibition (SH-SY5Y [27]): Dose-dependent effect
COc1cc2c(cc1OC)C(=O)/C(=C/c1ccc(N3CCN(c4ccccc4)CC3)cc1)C2 | 5980 nM | 0.64 | 4.5 | 1310 nM | 51.1% |  |  |  |  |  |  |  |  |  |  |  |  |  |  |  | 
COc1cc2c(cc1OC)C(=O)/C(=C/c1ccc(N3CCN(c4ccc(C)cc4)CC3)cc1)C2 | 1850 nM | 1.3 | 9.5 | 194 nM | 63.5% |  |  |  |  |  |  |  |  |  |  |  |  |  |  |  | 
COc1cc2c(cc1OC)C(=O)/C(=C/c1ccc(N3CCN(c4ncccn4)CC3)cc1)C2 | 2430 nM | 2.34 | 97.3 | 25 nM | 81.6% | 89.3% | Active | Dose-dependent effect | 98.5% | 85.7% | 82.4% | Active | 96.1% | 94.7% | Active | Active | Active | 92.8% | 9.9 µM | Active | Activity (SH-SY5Y [28]): Active; inhibition [10]: Active; inhibition [29]: Active; inhibition (SH-SY5Y [13]): Active; Activity (SH-SY5Y [30]): Active; Activity (SH-SY5Y [23]): Active

Reference: ChEMBL document CHEMBL3877279, “Design, synthesis, in-silico and biological evaluation of novel donepezil derivatives as multi-target-directed ligands for the treatment of Alzheimer's disease” (Eur J Med Chem, 2017)
